Measurements published in patent US5698411A, “Method for determining activity of enzymes in metabolically active whole cells” (priority 1995, dated 1997).
Numbered stars: 1 amine (or outer) side, 2 acyl side, 3 side chain; on linkers, the order of the positions; unused ones are H or OH. Bridge positions count the residues as written; N and C are the ends. Peptide text beside a SMILES is read from it. I, II: the chains in the order shown. Rhodamine110 = O=C1OC2(c3ccc(N[*:1])cc3Oc3cc(N[*:2])ccc32)c2ccccc21

Columns and labels:
Type in all cases: cell-based, human
[1] = system: lymphocytes; test: peptidase activity in leukemia and non-leukemia patients, lymphocytes (Table 6C); set-up: unit not given here
Excerpt: (§1) Artificial intelligence was used to analyze data of cellular enzyme functions, and determine normal and disease states. Peptidases were used to distinguish leukemia from non-leukemia (output pattern). For input patterns lymphocyte and granulocyte cell types were used with aminopeptidases, cathepsins and dipeptidylpeptidase enzyme activities. In this Example, illustrated in Tables 6A-6C, three normals and three leukemia patients were used as known output patterns for the neural network to learn (in practice, the larger the learning set the more accurate unknown prediction will be). Unknowns were then presented to the learned algorithm as shown in the test case examples. Clinical diagnosis was confirmed by physicians. The trained neural network was able to correctly classify the leukemia from the non-leukemia.

[2] = system: granulocytes; test: peptidase activity in leukemia and non-leukemia patients, granulocytes (Table 6C); set-up: unit not given here
Excerpt: as §1

[3] = system: monocytes; test: aberrant enzyme activities in febrile children, monocytes (Table 7)
[4] = system: lymphocytes; test: aberrant enzyme activities in febrile children, lymphocytes (Table 7)
[5] = system: granulocytes; test: aberrant enzyme activities in febrile children, granulocytes (Table 7)

## C[C@@H](O)[C@H](N)C(=O)N1CCC[C@H]1C(=O)Nc1ccc2c(c1)Oc1cc(NC(=O)[C@@H]3CCCN3C(=O)[C@@H](N)[C@@H](C)O)ccc1C21OC(=O)c2ccccc21 [TP, (H-L-Thr--Pro)2 Rho 110 .2TFA]
[1]; J4 11/21/91 acute leuk.
  enzyme activity, Lymphs: 2.30
[1]; J4 12/2/91 A L
  enzyme activity, Lymphs: 1.46
[1]; J4 12/3/91 acute leuk.
  enzyme activity, Lymphs: 1.18
[1]; J5 11/27/91 A M L
  enzyme activity, Lymphs: 1.32
[1]; J19 11/27/91 C L L
  enzyme activity, Lymphs: 0.50
[1]; J22 12/2/91 A M L
  enzyme activity, Lymphs: 0.99
[1]; J22 12/9/91 A M L
  enzyme activity, Lymphs: 1.02
[1]; N191 normal
  enzyme activity, Lymphs: 2.14
[1]; N192 normal
  enzyme activity, Lymphs: 2.12
[1]; N193 normal
  enzyme activity, Lymphs: 2.33
[1]; N194 normal
  enzyme activity, Lymphs: 1.82
[1]; N195 normal
  enzyme activity, Lymphs: 1.90
[1]; N197 normal
  enzyme activity, Lymphs: 1.96
[1]; N199 normal
  enzyme activity, Lymphs: 1.86
[1]; N200 normal
  enzyme activity, Lymphs: 2.39
[1]; N201 normal
  enzyme activity, Lymphs: 1.88
[1]; N202 normal
  enzyme activity, Lymphs: 2.49
[1]; N206 normal
  enzyme activity, Lymphs: 2.89
[1]; P68 tachycardia
  enzyme activity, Lymphs: 1.90
[1]; P69 pancreatic CA
  enzyme activity, Lymphs: 2.26
[1]; P70 cirrhosis/hemobilia
  enzyme activity, Lymphs: 1.89
[1]; P71 ac. pyelonephritis
  enzyme activity, Lymphs: 1.86
[2]; J4 11/21/91 acute leuk.
  enzyme activity, Grans: 5.96
[2]; J4 12/2/91 A L
  enzyme activity, Grans: 2.59
[2]; J4 12/3/91 acute leuk.
  enzyme activity, Grans: 1.93
[2]; J5 11/27/91 A M L
  enzyme activity, Grans: 2.72
[2]; J19 11/27/91 C L L
  enzyme activity, Grans: 2.95
[2]; J22 12/2/91 A M L
  enzyme activity, Grans: 2.33
[2]; J22 12/9/91 A M L
  enzyme activity, Grans: 2.51
[2]; N191 normal
  enzyme activity, Grans: 4.73
[2]; N192 normal
  enzyme activity, Grans: 4.62
[2]; N193 normal
  enzyme activity, Grans: 4.96
[2]; N194 normal
  enzyme activity, Grans: 3.77
[2]; N195 normal
  enzyme activity, Grans: 3.74
[2]; N197 normal
  enzyme activity, Grans: 3.82
[2]; N199 normal
  enzyme activity, Grans: 3.71
[2]; N200 normal
  enzyme activity, Grans: 4.69
[2]; N201 normal
  enzyme activity, Grans: 4.23
[2]; N202 normal
  enzyme activity, Grans: 4.44
[2]; N206 normal
  enzyme activity, Grans: 5.98
[2]; P68 tachycardia
  enzyme activity, Grans: 5.63
[2]; P69 pancreatic CA
  enzyme activity, Grans: 4.21
[2]; P70 cirrhosis/hemobilia
  enzyme activity, Grans: 4.02
[2]; P71 ac. pyelonephritis
  enzyme activity, Grans: 4.37

## C[C@H](NC(=O)OCc1ccccc1)C(=O)NCC(=O)Nc1ccc2c(c1)Oc1cc(NC(=O)CNC(=O)[C@H](C)NC(=O)OCc3ccccc3)ccc1C21OC(=O)c2ccccc21 [Z-AG, (Z-Ala--Gly)2 Rho 110]
[3]; P89 Viral Stomatitis
  aberrant enzyme activity, MONOS: .smallcircle.
[3]; P95 Viral Syndrome
  aberrant enzyme activity, MONOS: .smallcircle.
[3]; P96 Viral Syndrome
  aberrant enzyme activity, MONOS: .smallcircle.
[3]; P97 Pyelonephritis
  aberrant enzyme activity, MONOS: .smallcircle.
[3]; P99 Viral Syndrome
  aberrant enzyme activity, MONOS: .smallcircle.
[3]; P102 UTI
  aberrant enzyme activity, MONOS: .smallcircle.
[3]; P103 Viral Syndrome
  aberrant enzyme activity, MONOS: .smallcircle.
[4]; P99 Viral Syndrome
  aberrant enzyme activity, LYMPHS: .smallcircle.
[4]; P102 UTI
  aberrant enzyme activity, LYMPHS: .smallcircle.
[4]; P103 Viral Syndrome
  aberrant enzyme activity, LYMPHS: .smallcircle.
[5]; P89 Viral Stomatitis
  aberrant enzyme activity, GRANS: .smallcircle.
[5]; P92 Adenitis
  aberrant enzyme activity, GRANS: .smallcircle.
[5]; P95 Viral Syndrome
  aberrant enzyme activity, GRANS: .smallcircle.
[5]; P96 Viral Syndrome
  aberrant enzyme activity, GRANS: .smallcircle.
[5]; P97 Pyelonephritis
  aberrant enzyme activity, GRANS: .smallcircle.
[5]; P99 Viral Syndrome
  aberrant enzyme activity, GRANS: .smallcircle.
[5]; P102 UTI
  aberrant enzyme activity, GRANS: .smallcircle.
[5]; P103 Viral Syndrome
  aberrant enzyme activity, GRANS: .smallcircle.

## NCC(=O)N1CCC[C@H]1C(=O)Nc1ccc2c(c1)Oc1cc(NC(=O)[C@@H]3CCCN3C(=O)CN)ccc1C21OC(=O)c2ccccc21 [GP, (H-Gly--Pro)2 Rho .2TFA]
[1]; J4 11/21/91 acute leuk.
  enzyme activity, Lymphs: 2.72
[1]; J4 12/2/91 A L
  enzyme activity, Lymphs: 3.80
[1]; J4 12/3/91 acute leuk.
  enzyme activity, Lymphs: 4.17
[1]; J5 11/27/91 A M L
  enzyme activity, Lymphs: 3.40
[1]; J19 11/27/91 C L L
  enzyme activity, Lymphs: 1.73
[1]; J22 12/2/91 A M L
  enzyme activity, Lymphs: 1.73
[1]; J22 12/9/91 A M L
  enzyme activity, Lymphs: 3.01
[1]; N191 normal
  enzyme activity, Lymphs: 4.14
[1]; N192 normal
  enzyme activity, Lymphs: 3.00
[1]; N193 normal
  enzyme activity, Lymphs: 3.00
[1]; N194 normal
  enzyme activity, Lymphs: 5.22
[1]; N195 normal
  enzyme activity, Lymphs: 5.24
[1]; N197 normal
  enzyme activity, Lymphs: 5.97
[1]; N199 normal
  enzyme activity, Lymphs: 5.55
[1]; N200 normal
  enzyme activity, Lymphs: 5.38
[1]; N201 normal
  enzyme activity, Lymphs: 6.53
[1]; N202 normal
  enzyme activity, Lymphs: 6.61
[1]; N206 normal
  enzyme activity, Lymphs: 7.09
[1]; P68 tachycardia
  enzyme activity, Lymphs: 5.92
[1]; P69 pancreatic CA
  enzyme activity, Lymphs: 6.80
[1]; P70 cirrhosis/hemobilia
  enzyme activity, Lymphs: 6.68
[1]; P71 ac. pyelonephritis
  enzyme activity, Lymphs: 3.55
[2]; J4 11/21/91 acute leuk.
  enzyme activity, Grans: 10.75
[2]; J4 12/2/91 A L
  enzyme activity, Grans: 11.08
[2]; J4 12/3/91 acute leuk.
  enzyme activity, Grans: 1.28
[2]; J5 11/27/91 A M L
  enzyme activity, Grans: 8.95
[2]; J19 11/27/91 C L L
  enzyme activity, Grans: 1.39
[2]; J22 12/2/91 A M L
  enzyme activity, Grans: 13.98
[2]; J22 12/9/91 A M L
  enzyme activity, Grans: 11.52
[2]; N191 normal
  enzyme activity, Grans: 11.20
[2]; N192 normal
  enzyme activity, Grans: 11.22
[2]; N193 normal
  enzyme activity, Grans: 8.87
[2]; N194 normal
  enzyme activity, Grans: 12.49
[2]; N195 normal
  enzyme activity, Grans: 13.31
[2]; N197 normal
  enzyme activity, Grans: 15.85
[2]; N199 normal
  enzyme activity, Grans: 13.41
[2]; N200 normal
  enzyme activity, Grans: 12.74
[2]; N201 normal
  enzyme activity, Grans: 15.92
[2]; N202 normal
  enzyme activity, Grans: 14.44
[2]; N206 normal
  enzyme activity, Grans: 17.96
[2]; P68 tachycardia
  enzyme activity, Grans: 16.08
[2]; P69 pancreatic CA
  enzyme activity, Grans: 16.21
[2]; P70 cirrhosis/hemobilia
  enzyme activity, Grans: 16.42
[2]; P71 ac. pyelonephritis
  enzyme activity, Grans: 11.07

## CC(C)C[C@H](NC(=O)[C@@H]1CCCN1C(=O)CN)C(=O)NCC(=O)N1CCC[C@H]1C(=O)Nc1ccc2c(c1)Oc1cc(NC(=O)[C@@H]3CCCN3C(=O)CNC(=O)[C@H](CC(C)C)NC(=O)[C@@H]3CCCN3C(=O)CN)ccc1C21OC(=O)c2ccccc21 [GPLGP, (H-Gly--Pro--Leu--Gly--Pro)2 Rho 110 .2TFA] (I: H-GPLGP / II: H-GPLGP; linker I:C-II:C via Rhodamine110)
[3]; P89 Viral Stomatitis
  aberrant enzyme activity, MONOS: .smallcircle.
[4]; P88 Enteritis
  aberrant enzyme activity, LYMPHS: .smallcircle.
[4]; P89 Viral Stomatitis
  aberrant enzyme activity, LYMPHS: .smallcircle.
[4]; P102 UTI
  aberrant enzyme activity, LYMPHS: .smallcircle.
[5]; P88 Enteritis
  aberrant enzyme activity, GRANS: .smallcircle.
[5]; P89 Viral Stomatitis
  aberrant enzyme activity, GRANS: .smallcircle.
[5]; P102 UTI
  aberrant enzyme activity, GRANS: .smallcircle.

## dichlorofluorescein [reference compound]
[3]; P88 Enteritis
  aberrant enzyme activity, MONOS: .smallcircle.
[3]; P89 Viral Stomatitis
  aberrant enzyme activity, MONOS: + (>0.25 Increase over normal range)
[3]; P92 Adenitis
  aberrant enzyme activity, MONOS: + (>0.25 Increase over normal range)
[3]; P95 Viral Syndrome
  aberrant enzyme activity, MONOS: + (>0.25 Increase over normal range)
[3]; P96 Viral Syndrome
  aberrant enzyme activity, MONOS: + (>0.25 Increase over normal range)
[3]; P97 Pyelonephritis
  aberrant enzyme activity, MONOS: + (>0.25 Increase over normal range)
[3]; P99 Viral Syndrome
  aberrant enzyme activity, MONOS: .smallcircle.
[3]; P101 Fever -- Unknown Origin
  aberrant enzyme activity, MONOS: + (>0.25 Increase over normal range)
[3]; P102 UTI
  aberrant enzyme activity, MONOS: .smallcircle.
[3]; P103 Viral Syndrome
  aberrant enzyme activity, MONOS: + (>0.25 Increase over normal range)
[4]; P88 Enteritis
  aberrant enzyme activity, LYMPHS: .smallcircle.
[4]; P89 Viral Stomatitis
  aberrant enzyme activity, LYMPHS: + (>0.25 Increase over normal range)
[4]; P92 Adenitis
  aberrant enzyme activity, LYMPHS: + (>0.25 Increase over normal range)
[4]; P95 Viral Syndrome
  aberrant enzyme activity, LYMPHS: + (>0.25 Increase over normal range)
[4]; P96 Viral Syndrome
  aberrant enzyme activity, LYMPHS: + (>0.25 Increase over normal range)
[4]; P97 Pyelonephritis
  aberrant enzyme activity, LYMPHS: + (>0.25 Increase over normal range)
[4]; P99 Viral Syndrome
  aberrant enzyme activity, LYMPHS: .smallcircle.
[4]; P101 Fever -- Unknown Origin
  aberrant enzyme activity, LYMPHS: + (>0.25 Increase over normal range)
[4]; P102 UTI
  aberrant enzyme activity, LYMPHS: .smallcircle.
[4]; P103 Viral Syndrome
  aberrant enzyme activity, LYMPHS: + (>0.25 Increase over normal range)
[5]; P88 Enteritis
  aberrant enzyme activity, GRANS: .smallcircle.
[5]; P89 Viral Stomatitis
  aberrant enzyme activity, GRANS: + (>0.25 Increase over normal range)
[5]; P92 Adenitis
  aberrant enzyme activity, GRANS: + (>0.25 Increase over normal range)
[5]; P95 Viral Syndrome
  aberrant enzyme activity, GRANS: + (>0.25 Increase over normal range)
[5]; P96 Viral Syndrome
  aberrant enzyme activity, GRANS: + (>0.25 Increase over normal range)
[5]; P97 Pyelonephritis
  aberrant enzyme activity, GRANS: + (>0.25 Increase over normal range)
[5]; P99 Viral Syndrome
  aberrant enzyme activity, GRANS: .smallcircle.
[5]; P101 Fever -- Unknown Origin
  aberrant enzyme activity, GRANS: + (>0.25 Increase over normal range)
[5]; P102 UTI
  aberrant enzyme activity, GRANS: .smallcircle.
[5]; P103 Viral Syndrome
  aberrant enzyme activity, GRANS: + (>0.25 Increase over normal range)
